Data taken from patent US20070105892A1, “Amidino compounds as cysteine protease inhibitors” (AXYS Pharmaceuticals, Inc., priority 2003, published 2007).

CCc1noc(C(=O)[C@H](CC)NC(=O)[C@H](CC2(C)CCCC2)NC2=NS(=O)(=O)c3ccccc32)n1 [Example 1]
melting point: 202 to 204 °C
